Twelve compounds from patent publication US10376481B2, “Compounds and methods for inhibiting NHE-mediated antiport in the treatment of disorders associated with fluid retention or salt overload and gastrointestinal tract disorders” (ARDELYX, INC, priority 2012, dated 2019) can be followed below.

For one experiment, the target named is T1, human NHE3 (Homo sapiens, UniProt P48764).
T1 sequence (P48764 26-834): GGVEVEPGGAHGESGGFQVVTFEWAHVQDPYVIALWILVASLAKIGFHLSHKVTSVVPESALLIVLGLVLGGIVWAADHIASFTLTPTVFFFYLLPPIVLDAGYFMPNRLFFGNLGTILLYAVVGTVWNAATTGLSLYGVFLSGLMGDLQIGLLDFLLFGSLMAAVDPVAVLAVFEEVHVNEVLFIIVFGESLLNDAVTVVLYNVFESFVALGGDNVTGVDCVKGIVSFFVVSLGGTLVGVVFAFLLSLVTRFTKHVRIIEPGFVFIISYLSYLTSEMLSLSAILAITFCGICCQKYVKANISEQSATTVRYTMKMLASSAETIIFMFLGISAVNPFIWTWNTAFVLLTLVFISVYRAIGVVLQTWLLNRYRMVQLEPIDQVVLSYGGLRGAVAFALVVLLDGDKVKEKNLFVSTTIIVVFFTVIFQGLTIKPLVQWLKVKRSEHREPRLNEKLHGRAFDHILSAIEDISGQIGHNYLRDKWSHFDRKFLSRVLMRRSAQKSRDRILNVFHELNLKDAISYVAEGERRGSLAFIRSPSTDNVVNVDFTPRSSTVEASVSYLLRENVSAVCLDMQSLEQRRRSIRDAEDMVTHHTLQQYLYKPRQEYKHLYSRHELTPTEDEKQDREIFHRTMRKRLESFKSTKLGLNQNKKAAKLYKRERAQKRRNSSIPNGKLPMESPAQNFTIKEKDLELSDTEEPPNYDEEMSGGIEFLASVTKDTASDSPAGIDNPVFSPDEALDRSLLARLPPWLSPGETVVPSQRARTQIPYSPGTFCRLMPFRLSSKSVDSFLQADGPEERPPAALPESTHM
The experiment is described as follows: Cell-based assay of NHE-3 activity (human NHE3 inhibition assay). On the set-up: expressed in transfected cells; host or cells: Opossum kidney (OK) cells (ATCC), electroporated. The conditions noted are these: OK cells with human NHE-3 gene, BCECF pH recovery, 0-30 μM test compound; for IC50: read-out: Human NHE3 pIC50 (converted). The procedure:
Rat or human NHE-3-mediated Na^+-dependent H^+ antiport was measured using a modification of the pH sensitive dye method originally reported by Paradiso (Proc. Natl. Acad. Sci. USA. (1984) 81(23): 7436-7440). Opossum kidney (OK) cells were obtained from the ATCC and propagated per their instructions. The rat NHE-3 gene (GenBank M85300) or the human NHE-3 gene (GenBank NM_004174.1) was introduced into OK cells via electroporation, and cells were seeded into 96 well plates and grown overnight. Medium was aspirated from the wells, cells were washed twice with NaCl-HEPES buffer (100 mM NaCl, 50 mM HEPES, 10 mM glucose, 5 mM KCl, 2 mM CaCl2, 1 mM MgCl2, pH 7.4), then incubated for 30 min at room temperature with NH4Cl-HEPES buffer (20 mM NH4Cl, 80 mM NaCl, 50 mM HEPES, 5 mM KCl, 2 mM CaCl2, 1 mM MgCl2, pH 7.4) containing 5 μM bis(acetoxymethyl) 3,3′-(3′,6′-bis(acetoxymethoxy)-5-((acetoxymethoxy)carbonyl)-3-oxo-3H-spiro[isobenzofuran-1,9′-xanthene]-2′,7′-diyl)dipropanoate (BCECF-AM). Cells were washed twice with Ammonium free, Na^+-free HEPES (100 mM choline, 50 mM HEPES, 10 mM glucose, 5 mM KCl, 2 mM CaCl2, 1 mM MgCl2, pH 7.4) and incubated in the same buffer for 10 minutes at room temperature to lower intracellular pH. […] Initial rates were plotted as the average 2 or more replicates, and pIC50 values were estimated using GraphPad Prism.

Experiment [1] relates to absorption of sodium from the intestinal lumen. The experiment is described as follows: Inhibition of intestinal sodium absorption: rat urinary sodium and fecal form 16 h post-dose. The experiment is classed as in vivo, Sprague-Dawley rats. As to conditions: for response vs control in vivo at 3 mg/kg: oral gavage 3 mg/kg; for response vs control in vivo at 3 mg/kg / response vs control in vivo at 10 mg/kg: urine 16 h post-dose, read-out: uNa Result, uNa (% of vehicle); for response vs control in vivo at 10 mg/kg / FFS (fecal form score): oral gavage 10 mg/kg; for FFS (fecal form score): 16 h post-dose, scale 1-5, group average. The procedure:
Urinary sodium concentration and fecal form were measured to assess the ability of selected example compounds to inhibit the absorption of sodium from the intestinal lumen. Eight-week old Sprague-Dawley rats were purchased from Charles River Laboratories (Hollister, Calif.), were housed 2 per cage, and acclimated for at least 3 days before study initiation. Animals were fed Harlan Teklad Global 2018 rodent chow (Indianapolis, Ind.) and water ad libitum throughout the study and maintained in a standard light/dark cycle of 6 AM to 6 PM. On the day of the study, between 4 PM and 5 PM, a group of rats (n=6) were dosed via oral gavage with test compound or vehicle (water) at a volume of 10 mL/kg. After dose administration animals were placed in individual metabolic cages where they were also fed the same chow in meal form and watered ad libitum. At 16 h post-dose, the urine samples were collected and fecal form was assessed by two independent observations. Fecal forms were scored according to a common scale associated with increasing fecal water to the wettest observation in the cage's collection funnel (1, normal pellet; 2, pellet adhering to sides of collection funnel due to moisture; 3, loss of normal pellet shape; 4, complete loss of shape with a blotting pattern; 5, liquid fecal streams evident). A rat's fecal form score (FFS) was determined by averaging both observational scores for all rats within a group (n=6). The vehicle group average was 1. For urine samples, the volumes were determined gravimetrically and centrifuged at 3,600×g. The supernatants were diluted 100-fold in deionized Milli-Q water then filtered through a 0.2 μm GHP Pall AcroPrep filter plate (Pall Life Sciences, Ann Arbor, Mich.) prior to analysis by ion chromatography. Ten microliters of each filtered extract was injected onto a Dionex ICS-3000 ion chromatograph system (Dionex, Sunnyvale, Calif.). Cations were separated by an isocratic method using 25 mM methanesulfonic acid as the eluent on an IonPac CS12A 2 mm i.d.×250 mm, 8 μm particle size cation exchange column (Dionex). Sodium was quantified using standards prepared from a cation standard mix containing Li^+, Na^+, NH4^+, K^+, Mg^2+, and Ca^2+ (Dionex). The mean mass of sodium urinated for every group in the 16 h period was determined with the vehicle group usually urinating approximately 21 mg sodium. The urine Na (uNa) for rats in the test groups were expressed as a percentage of the vehicle mean and the means were compared to that of the vehicle group by utilizing a one-way analysis of variance coupled with a Dunnett's post hoc test.

On to `CN(C)[C@H]1Cc2c(Cl)cc(Cl)cc2[C@@H]1Oc1ccc(S(=O)(=O)NCCOCCOCCNC(=O)CCC(C)(CCC(=O)NCCOCCOCCNS(=O)(=O)c2ccc(O[C@H]3c4cc(Cl)cc(Cl)c4C[C@@H]3N(C)C)cc2)NC(=O)CCC(=O)O)cc1` [Example 12, 1-(4-((1S,2S)-4,6-dichloro-2-(dimethylamino)-2,3-dihydro-1H-inden-1-yloxy)phenylsulfonamido)-13-(3-(2-(2-(2-(4-((1S,2S)-4,6-dichloro-2-(dimethylamino)-2,3-dihydro-1H-inden-1-yloxy)phenylsulfonamido)ethoxy)ethoxy)ethylamino)-3-oxopropyl)-13-methyl-10,15-dioxo-3,6-dioxa-9,14-diazaoctadecan-18-oic Acid], for which, at human NHE3, the IC50 is < 100 nM. Also, the response vs control in vivo at 3 mg/kg in experiment [1] lay in the range of 35 to 75%. With `O=C(NCCOCCOCCOCCNS(=O)(=O)c1ccc(O[C@H]2c3ccccc3C[C@@H]2N2CCCCC2)cc1)c1cccc(C(=O)NCCOCCOCCOCCNS(=O)(=O)c2ccc(O[C@H]3c4ccccc4C[C@@H]3N3CCCCC3)cc2)c1` [Example 35], the IC50 on human NHE3 is < 100 nM. In addition, the response vs control in vivo at 10 mg/kg in experiment [1] is > 75%. Regarding `CN(C)[C@H]1Cc2c(Cl)cc(Cl)cc2[C@@H]1Oc1ccc(S(=O)(=O)NCCOCCOCCNC(=O)CCC(=O)NCCOCCOCCNS(=O)(=O)c2ccc(O[C@H]3c4cc(Cl)cc(Cl)c4C[C@@H]3N(C)C)cc2)cc1` [Example 8, N1,N4-bis(2-(2-(2-(4-((1S,2S)-4,6-dichloro-2-(dimethylamino)-2,3-dihydro-1H-inden-1-yloxy)phenylsulfonamido)ethoxy)ethoxy)ethyl)succinamide], the IC50 at human NHE3 was < 100 nM. Moreover, the response vs control in vivo at 3 mg/kg in experiment [1] is 35 to 75%. With `CC(N)(CCC(=O)NCCOCCOCCNS(=O)(=O)c1ccc(O[C@H]2c3ccccc3C[C@@H]2N2CCCCC2)cc1)CCC(=O)NCCOCCOCCNS(=O)(=O)c1ccc(O[C@H]2c3ccccc3C[C@@H]2N2CCCCC2)cc1` [Example 37], the IC50 at human NHE3 was < 100 nM. In experiment [1], the “FFS (fecal form score)” value was determined as 1 and the response vs control in vivo at 10 mg/kg fell in the range of 35 to 75%. For `CN(C)[C@H]1Cc2c(Cl)cc(Cl)cc2[C@@H]1Oc1ccc(S(=O)(=O)N(C)CCOCCOCCNC(=O)NCCCCNC(=O)NCCOCCOCCN(C)S(=O)(=O)c2ccc(O[C@H]3c4cc(Cl)cc(Cl)c4C[C@@H]3N(C)C)cc2)cc1` [Example 26] the same measures were < 100 nM, 1 and 35 to 75%. With `O=C(NCCCCNC(=O)NCCOCCOCCNS(=O)(=O)c1ccc(O[C@H]2c3ccccc3C[C@@H]2N2CC[C@@H](O)C2)cc1)NCCOCCOCCNS(=O)(=O)c1ccc(O[C@H]2c3ccccc3C[C@@H]2N2CC[C@@H](O)C2)cc1` [Example 31], the IC50 at human NHE3 was < 100 nM. In the case of `CN(C)[C@H]1Cc2c(Cl)cc(Cl)cc2[C@@H]1Oc1ccc(S(=O)(=O)NCCOCCOCCNC(=O)Nc2ccc(NC(=O)NCCOCCOCCNS(=O)(=O)c3ccc(O[C@H]4c5cc(Cl)cc(Cl)c5C[C@@H]4N(C)C)cc3)cc2)cc1` [Example 2, (S,S)—N,N′-(2,2′-(2,2′-(2,2′-(1,4-phenylenebis(azanediyl))bis(oxomethylene)bis(azanediyl)bis(ethane-2,1-diyl))bis(oxy)bis(ethane-2,1-diyl))bis(oxy)bis(ethane-2,1-diyl))bis(4-((1S,2S)-4,6-dichloro-2-(dimethylamino)-2,3-dihydro-1H-inden-1-yloxy)benzenesulfonamide)], the “Human NHE3 pIC50” value at human NHE3 is recorded as “C (NHE3 pIC50 >7)”. Take `O=C(NCCOCCOCCNS(=O)(=O)c1ccc(O[C@H]2c3ccccc3C[C@@H]2N2CCCCC2)cc1)[C@H](O)[C@@H](O)C(=O)NCCOCCOCCNS(=O)(=O)c1ccc(O[C@H]2c3ccccc3C[C@@H]2N2CCCCC2)cc1` [Example 32]: on human NHE3, the IC50 was < 100 nM. In experiment [1], the response vs control in vivo at 10 mg/kg was > 75%. As to `CC(C)(C(=O)NCCOCCOCCOCCNS(=O)(=O)c1ccc(O[C@H]2c3ccccc3C[C@@H]2N2CCCCC2)cc1)C(=O)NCCOCCOCCOCCNS(=O)(=O)c1ccc(O[C@H]2c3ccccc3C[C@@H]2N2CCCCC2)cc1` [Example 7, 2,2-dimethyl-N1,N3-bis(2-(2-(2-(2-(4-((1S,2S)-2-(piperidin-1-yl)-2,3-dihydro-1H-inden-1-yloxy)phenylsulfonamido)ethoxy)ethoxy)ethoxy)ethyl)malonamide], the IC50 on human NHE3 is < 100 nM. Further, in experiment [1], the response vs control in vivo at 10 mg/kg fell in the range of 35 to 75%. On to `N[C@@H]1CCCN([C@H]2Cc3ccccc3[C@@H]2Oc2ccc(S(=O)(=O)NCCOCCOCCNC(=O)NCCCCNC(=O)NCCOCCOCCNS(=O)(=O)c3ccc(O[C@H]4c5ccccc5C[C@@H]4N4CCC[C@@H](N)C4)cc3)cc2)C1` [Example 28], for which the IC50 at human NHE3 is 100 to 10000 nM. On the same count and under the same terms, the same measure for `O=C(NCCCCNC(=O)NCCOCCOCCNS(=O)(=O)c1ccc(O[C@H]2c3cc(Cl)ccc3C[C@@H]2N2CCCCC2)cc1)NCCOCCOCCNS(=O)(=O)c1ccc(O[C@H]2c3cc(Cl)ccc3C[C@@H]2N2CCCCC2)cc1` [Example 18]: < 100 nM. Still for that read-out and setting: the same measure for `NC(CCC(=O)NCCOCCOCCOCCNS(=O)(=O)c1ccc(O[C@H]2c3ccccc3C[C@@H]2N2CCCCC2)cc1)(CCC(=O)NCCOCCOCCOCCNS(=O)(=O)c1ccc(O[C@H]2c3ccccc3C[C@@H]2N2CCCCC2)cc1)CCC(=O)NCCOCCOCCOCCNS(=O)(=O)c1ccc(O[C@H]2c3ccccc3C[C@@H]2N2CCCCC2)cc1` [Example 10, 4-amino-4-(13-oxo-1-(4-((1S,2S)-2-(piperidin-1-yl)-2,3-dihydro-1H-inden-1-yloxy)phenylsulfonamido)-3,6,9-trioxa-12-azapentadecan-15-yl)-N1,N7-bis(2-(2-(2-(2-(4-((1S,2S)-2-(piperidin-1-yl)-2,3-dihydro-1H-inden-1-yloxy)phenylsulfonamido)ethoxy)ethoxy)ethoxy)ethyl)heptanediamide]: < 100 nM.
